Literature values as cited in patent US20120101168A1, “DEUTERIUM ENRICHED RASAGILINE” (priority 2010, published 2012).

Key:
[1] = target: CYP1A2 (Homo sapiens, UniProt P05177); details: forms several primary metabolites
[2] = system: MAO; details: more potent, but not in-vitro

Sequence of CYP1A2 (P05177 whole entry): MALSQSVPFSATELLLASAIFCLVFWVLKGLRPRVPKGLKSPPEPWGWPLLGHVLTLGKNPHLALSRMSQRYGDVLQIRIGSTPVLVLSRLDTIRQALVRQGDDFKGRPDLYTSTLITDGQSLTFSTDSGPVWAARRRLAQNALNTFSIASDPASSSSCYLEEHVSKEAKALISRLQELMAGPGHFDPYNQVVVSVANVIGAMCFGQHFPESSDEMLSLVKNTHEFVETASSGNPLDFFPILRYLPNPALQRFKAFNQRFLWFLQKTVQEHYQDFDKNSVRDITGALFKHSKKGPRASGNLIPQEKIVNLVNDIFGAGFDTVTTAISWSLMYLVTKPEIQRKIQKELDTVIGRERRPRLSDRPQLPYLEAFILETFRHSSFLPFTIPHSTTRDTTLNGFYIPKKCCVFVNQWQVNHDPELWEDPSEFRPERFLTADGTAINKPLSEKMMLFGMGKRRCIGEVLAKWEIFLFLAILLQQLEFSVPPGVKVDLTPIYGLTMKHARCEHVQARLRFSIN

| Compound | metabolism by CYP1A2 [1] | MAO inhibition potency compared with non-deuterated phenelzine [2] |
| --- | --- | --- |
| C#CCN[C@@H]1CCc2ccccc21 [Rasagiline, R(+)-N-propargyl-1-aminoindan] | slowly metabolized |  |
| [2H]C([2H])(NN)C([2H])([2H])c1ccccc1 [deuterated phenelzine] |  | more potent MAO inhibitor |
